# Test results: US8648092B2, “Imidazo[1,2-a]pyridine derivatives: preparation and pharmaceutical applications” (MEI Pharma, priority 2005, dated 2014)
# Experiments:
# [1] = biological target: HDAC1 enzyme (recombinant GST-HDAC1) (Homo sapiens (Human), UniProt Q13547); assay: In vitro HDAC assay for determination of IC50 values (BIOMOL fluorescent-based HDAC activity assay); assay type: biochemical; conditions: Flur de lys substrate, 2 h room temperature, read-out: IC50 (HDAC 1)
# Description: Biological Testing and Enzyme Assays Recombinant GST-HDAC1 Protein Expression and Purification
# Human cDNA library was prepared using cultured SW620 cells. Amplification of human HDAC1 coding region from this cDNA library was cloned separately into the baculovirus expression pDEST20 vector (GATEWAY Cloning Technology, Invitrogen Pte Ltd). The pDEST20-HDAC1 construct was confirmed by DNA sequencing. Recombinant baculovirus was prepared using the Bac-To-Bac method following the manufacturer's instruction (Invitrogen Pte Ltd).
# Expression of GST-HDAC1 was done by infecting SF9 cells (Invitrogen Pte Ltd) with pDEST20-HDAC1 baculovirus at MOI=1 for 48 h. Soluble cell lysate was incubated with pre-equilibrated Glutathione Sepharose 4B beads (Amersham) at 4° C. for 2 h. The beads were washed with PBS buffer for 3 times. The GST-HDAC1 protein was eluted by elution buffer containing 50 mM Tris, pH8.0, 150 mM NaCl, 1% Triton X-100 and 10 mM or 20 mM reduced Glutathione. The purified GST-HDAC1 protein was dialyzed with HDAC storage buffer containing 10 mM Tris, pH7.5, 100 mM NaCl and 3 mM MgCl2. 20% Glycerol was added to purified GST-HDAC1 protein before storage at −80° C.
# In Vitro HDAC Assay for Determination of IC50 Values
# The assay has been carried out in 96 well format and the BIOMOL fluorescent-based HDAC activity assay has been applied. […] Flur de lys Developer was added and the reaction was incubated for 10 min. Briefly, deacetylation of the substrate sensitizes it to the developer, which then generates a fluorophore. The fluorophore is excited with 360 nm light and the emitted light (460 nm) is detected on a fluorometric plate reader (Tecan Ultra Microplate detection system, Tecan Group Ltd.).
# The analytical software, Prism 4.0 (GraphPad Software Inc) has been used to generate IC50 from a series of data.
# [2] = system: Colo205 cells; assay: Cell-based proliferation assay for determination of GI50 values (CyQUANT); parameters: species or system human; conditions: Homo sapiens
# Description: Cell-Based Proliferation Assay for Determination of GI50 Values
# Human cancer cell lines (e.g. Colo205) were obtained from ATCC. Colo205 cells were cultivated in RPMI 1640 containing 2 mM L-Glutamine, 5% FBS, 1.0 mM Na Pyruvate. Colo205 cells were seeded in 96-wells plate at 5000 cells per well. The plates were incubated at 37° C., 5% CO2, for 24 h. Cells were treated with compounds at various concentrations for 96 h. Cell growth was then monitored using CyQUANT® cell proliferation assay (Invitrogen Pte Ltd). Dose response curves were plotted to determine GI50 values for the compounds using XL-fit (ID Business Solution, Emeryville, Calif.). GI50 is defined as the concentration of compound required for 50% inhibition of cell growth.
# The cellular or growth inhibition activity results of representative compounds are shown in Table 4 below (unit in the table is micromolar).
# Chain of HDAC1 enzyme (recombinant GST-HDAC1) (Q13547 whole entry): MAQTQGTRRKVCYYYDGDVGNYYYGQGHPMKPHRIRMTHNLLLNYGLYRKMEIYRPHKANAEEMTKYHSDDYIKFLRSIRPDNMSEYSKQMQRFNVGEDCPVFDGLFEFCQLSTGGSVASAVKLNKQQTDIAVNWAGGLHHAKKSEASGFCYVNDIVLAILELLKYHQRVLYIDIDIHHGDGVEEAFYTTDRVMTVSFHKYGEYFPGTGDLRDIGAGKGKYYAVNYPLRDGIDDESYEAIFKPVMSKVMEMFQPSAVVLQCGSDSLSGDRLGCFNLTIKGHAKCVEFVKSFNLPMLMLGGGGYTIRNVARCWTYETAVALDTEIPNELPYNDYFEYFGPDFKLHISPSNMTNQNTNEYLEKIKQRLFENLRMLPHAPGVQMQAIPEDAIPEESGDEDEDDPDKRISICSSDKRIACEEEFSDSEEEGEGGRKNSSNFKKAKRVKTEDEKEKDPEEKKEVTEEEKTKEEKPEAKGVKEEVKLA
SMILES,IC50 [1] [nM],"GI50 ([2]; COLO 205, 96 h treatment) [nM]","GI50 ([2]; COLO 205, 96 h, 96 h treatment) [nM]"
"CCCN(Cc1c(-c2ccccc2)nc2cc(/C=C/C(=O)NO)ccn12)CC1CC1 [Compound 53, 3-{3-[(Cyclopropylmethyl-propyl-amino)-methyl]-2-phenyl-imidazo[1,2a]pyridin-7-yl}-N-hydroxy-acrylamide]",600,2900,
"CCCN(Cc1c(-c2ccccc2)nc2cc(/C=C/C(=O)NO)ccn12)C(C)CC (stereo not shown) [Compound 54, 3-{3-[(sec-Butyl-propyl-amino)-methyl]-2-phenyl-imidazo[1,2-a]pyridin-7-yl}-N-hydroxy-acrylamide]",1000,4700,
"CC1CN(Cc2c(-c3ccccc3)nc3cc(/C=C/C(=O)NO)ccn23)CC(C)O1 (stereo not shown) [Compound 55, 3-[3-(2,6-Dimethyl-morpholin-4-ylmethyl)-2-phenyl-imidazo[1,2-a]pyridin-7-yl]-N-hydroxy-acrylamide]",2400,9300,
"CCN(CCOC)Cc1c(-c2ccccc2)nc2cc(/C=C/C(=O)NO)ccn12 [Compound 56, 3-(3-{[Ethyl-(2-methoxy-ethyl)-amino]-methyl}-2-phenyl-imidazo[1,2-a]pyridin-7-yl)-N-hydroxy-acrylamide]",1600,9000,
"CCN1CCN(Cc2c(-c3ccccc3)nc3cc(/C=C/C(=O)NO)ccn23)CC1 [Compound 57, 3-[3-(4-Ethyl-piperazin-1-ylmethyl)-2-phenyl-imidazo[1,2-a]pyridin-7-yl]-N-hydroxy-acrylamide]",4600,14000,
"O=C(C=Cc1ccn2c(CN3CCC(Cc4ccccc4)CC3)c(-c3ccccc3)nc2c1)NO [Compound 58, 3-[3-(4-Benzyl-piperidin-1-ylmethyl)-2-phenyl-imidazo[1,2-a]pyridin-7-yl]-N-hydroxy-acrylamide]",1500,2900,
"CC(C)(C)CNCc1c(-c2ccccc2)nc2cc(/C=C/C(=O)NO)ccn12 [Compound 59, 3-{3-[(2,2-Dimethyl-propylamino)-methyl]-2-phenyl-imidazo[1,2-a]pyridin-7-yl}-N-hydroxy-acrylamide]",230,2100,
"O=C(/C=C/c1ccn2c(CNC3CC3)c(-c3ccccc3)nc2c1)NO [Compound 62, 3-(3-Cyclopropylaminomethyl-2-phenyl-imidazo[1,2-a]pyridin-7-yl)-N-hydroxy-acrylamide]",310,2500,
"CC(C)(C)NCc1c(-c2ccccc2)nc2ccc(/C=C/C(=O)NO)cn12 [Compound 65, 3-[3-(tert-Butylamino-methyl)-2-phenyl-imidazo[1,2-a]pyridin-6-yl]-N-hydroxy-acrylamide]",> 10000,62000,
"CCCCNCc1c(-c2ccccc2)nc2ccc(/C=C/C(=O)NO)cn12 [Compound 66, 3-(3-Butylaminomethyl-2-phenyl-imidazo[1,2-a]pyridin-6-yl)-N-hydroxy-acrylamide]",> 10000,55000,
"CC(C)(C)CNCc1c(C(C)(C)C)nc2cc(/C=C/C(=O)NO)ccn12 [Compound 67, 3-[2-tert-Butyl-3-[(2,2-dimethyl-propylamino)-methyl]-imidazo[1,2-a]pyridin-7-yl]-N-hydroxy-acrylamide]",190,1500,
"CC(C)(C)NCc1c(-c2ccccc2)nc2cc(C(=O)NO)ccn12 [Compound 70, 3-(tert-Butylamino-methyl)-2-phenyl-imidazo[1,2-a]pyridine-7-carboxylic acid hydroxyamide]",> 10000,> 100000,
"CCCCc1nc2cc(/C=C/C(=O)NO)ccn2c1CN(CCC)CCC [Compound 74, 3-(2-Butyl-3-dipropylaminomethyl-imidazo[1,2-a]pyridin-7-yl)-N-hydroxy-acrylamide]",200,610,
"CCN(CC)Cc1c(-c2ccccc2)nc2cc(C(=O)NO)ccn12 [Compound 79, 3-Diethylaminomethyl-2-phenyl-imidazo[1,2-a]pyridine-7-carboxylic acid hydroxyamide]",> 10000,> 100000,
"CCN(CC)Cc1c(C(C)(C)C)nc2cc(/C=C/C(=O)NO)ccn12 [Compound 80, 3-(2-tert-Butyl-3-diethylaminomethyl-imidazo[1,2-a]pyridin-7-yl)-N-hydroxy-acrylamide]",1200,,4400
"CCCN(CC)Cc1c(C(C)(C)C)nc2cc(/C=C/C(=O)NO)ccn12 [Compound 82, 3-{2-tert-Butyl-3-[(ethyl-propyl-amino)-methyl]-imidazo[1,2-a]pyridin-7-yl}-N hydroxy-acrylamide]",270,1800,
"CCN(Cc1c(C(C)(C)C)nc2cc(/C=C/C(=O)NO)ccn12)CC(C)C [Compound 86, 3-{2-tert-Butyl-3-[(ethyl-isobutyl-amino)-methyl]-imidazo[1,2-a]pyridin-7-yl}-N-hydroxy-acrylamide]",570,3900,

# Molecules with a lower IC50 [1], results first:
IC50 [1] [nM],"GI50 ([2]; COLO 205, 96 h treatment) [nM]","GI50 ([2]; COLO 205, 96 h, 96 h treatment) [nM]",SMILES
80,560,,"O=C(/C=C/c1ccn2c(CNCC3CC3)c(-c3ccccc3)nc2c1)NO [Compound 61, 3-{3-[(Cyclopropylmethyl-amino)-methyl]-2-phenyl-imidazo[1,2-a]pyridin-7-yl}-N-hydroxy-acrylamide]"
130,740,,"CC(C)(C)NCc1c(C(C)(C)C)nc2cc(/C=C/C(=O)NO)ccn12 [Compound 69, 3-[2-tert-Butyl-3-(tert-butylamino-methyl)-imidazo[1,2-a]pyridin-7-yl]-N-hydroxy-acrylamide]"
120,1000,,"CCCCN(C)Cc1c(-c2ccccc2)nc2cc(/C=C/C(=O)NO)ccn12 [Compound 71, 3-{3-[(Butyl-methyl-amino)-methyl]-2-phenyl-imidazo[1,2-a]pyridin-7-yl}-N-hydroxy-acrylamide]"
20,180,,"CCCCNCc1c(CCCC)nc2cc(/C=C/C(=O)NO)ccn12 [Compound 72, 3-(2-Butyl-3-butylaminomethyl-imidazo[1,2-a]pyridin-7-yl)-N-hydroxy-acrylamide]"
20,,140,"CCCCc1nc2cc(/C=C/C(=O)NO)ccn2c1CNC(C)(C)C [Compound 73, 3-[2-Butyl-3-(tert-butylamino-methyl)-imidazo[1,2-a]pyridin-7-yl]-N-hydroxy-acrylamide]"
180,680,,"CCCCc1nc2cc(/C=C/C(=O)NO)ccn2c1CN(CC)CC [Compound 75, 3-(2-Butyl-3-diethylaminomethyl-imidazo[1,2-a]pyridin-7-yl)-N-hydroxy-acrylamide]"
70,170,,"CCCCc1nc2cc(/C=C/C(=O)NO)ccn2c1CN(C)CCCC [Compound 76, 3-{2-Butyl-3-[(butyl-methyl-amino)-methyl]-imidazo[1,2-a]pyridin-7-yl}-N-hydroxy-acrylamide]"
60,160,,"CCCCc1nc2cc(/C=C/C(=O)NO)ccn2c1CN(CC)CCCC [Compound 77, 3-{2-Butyl-3-[(butyl-ethyl-amino)-methyl]-imidazo[1,2-a]pyridin-7-yl}-N-hydroxy-acrylamide]"
90,580,,"CCCCc1nc2cc(/C=C/C(=O)NO)ccn2c1CN(CCC)CCCC [Compound 78, 3-{2-Butyl-3-[(butyl-propyl-amino)-methyl]-imidazo[1,2-a]pyridin-7-yl}-N-hydroxy-acrylamide]"
40,,230,"CCCCc1nc2cc(/C=C/C(=O)NO)ccn2c1CN(C)C [Compound 83, 3-(2-Butyl-3-dimethylaminomethyl-imidazo[1,2-a]pyridin-7-yl)-N-hydroxy-acrylamide]"
60,470,,"CCNCc1c(C(C)(C)C)nc2cc(/C=C/C(=O)NO)ccn12 [Compound 84, 3-(2-tert-Butyl-3-ethylaminomethyl-imidazo[1,2-a]pyridin-7-yl)-N-hydroxy-acrylamide]"
60,680,,"CCCCN(CC)Cc1c(C(C)(C)C)nc2cc(/C=C/C(=O)NO)ccn12 [Compound 85, 3-{2-tert-Butyl-3-[(butyl-ethyl-amino)-methyl]-imidazo[1,2-a]pyridin-7-yl}-N-hydroxy-acrylamide]"
